Source: patent US20220387396A1, “METHODS OF TREATING THE SYMPTOMS OF AUTISM SPECTRUM DISORDER” (MapLight Therapeutics, Inc., priority 2019, published 2022)
Several values for one entry are separate records, joined by “and”; a condition that tells them apart may be missing. Identical values can stand only once. Marks after values point to notes of the source that are not given here.

Legend:
5-HT1b receptor [1] = target: T1, 5-HT1b receptor (Homo sapiens, UniProt P28222); experiment: Radioligand binding competition assay with 3H-5-CT; settings: for Ki: 3H-5-CT, derived from IC50 using Cheng-Prusoff equation
Description: The Ki values were derived from IC50 values using Cheng-Prusoff equation.

[2] = CSF exposure in c57/B16 mice after i.p. dosing
[3] = target: T2, rat recombinant 5-HT1b (r5-HT1b) receptors (Rattus norvegicus, UniProt P28564); experiment: SPA-based 35S-GTPγS binding assay, rat 5-HT1b; assay type: biochemical; settings: for EC50: ten concentrations in duplicate
T2 construct: expressed in transfected cells

[4] = target: T3, human 5-HT1b (h5-HT1b) receptors (Homo sapiens, UniProt P28222); experiment: SPA-based 35S-GTPγS binding assay, human 5-HT1b; assay type: biochemical; settings: for EC50: ten concentrations in duplicate
T3 construct: expressed in transfected cells

[5] = CSF exposure in adult male CD-1 mice after i.p. dosing; settings: male CD-1 mice dosed with zolmitriptan 3 and 10 mg/kg i.p.
resident CD-1 mice = experiment: Resident-Intruder (RI) assay, CD-1 resident / C57BL/6 intruder; assay type: in vivo, mouse; settings: CD-1 resident mice, cross-over, N=25, zolmitriptan 10 mg/kg, risperidone 0.03 mg/kg, mean; for Attack Time (s): 5 min period
Experimental: The resident mice were isolated for 1 week prior to testing aggressive behavior, while the intruders were group housed (4 per cage) throughout the study. All mice were given ad libitum food and water. Following the 1-week isolation period, aggressive behaviors were recorded using a front-facing camera daily (Monday-Friday) for up to 2 weeks to attain a stable baseline prior to evaluating drug effects. The interaction was scored using Borris open source event logging software to score the number of total initiated attacks by the resident and the cumulative duration of those attacks. Single fight bouts lasting longer than 60 seconds were stopped and the intruder was subsequently removed from the resident cage. […] Attack time was measured over a 5 min period as a cross over design.

in vivo = settings: male, CD-1, mouse, ip
5-HT1b receptor [6] = target: T1, 5-HT1b receptor; experiment: 5-HT1b receptor occupancy and efficacy model, human dose prediction; settings: for Zolmitriptan human dose: predicted dose; for Zolmitriptan [CSF]: predicted effective human CSF range
Description: Specifically, 5-HT1b receptor occupancy and efficacy models measured potency of zolmitriptan and NMDZ at the 5-HT1b receptor and the ratio of zolmitriptan: NDMZ in human CSF.
Using classical receptor theory, the receptor occupancy when considering two ligands (i.e., entities) can be predicted using the following relationship:
Total % occupancy=(% occupancy by A)+{[100%−(% occupancy by A)]×(% occupancy by B)} when considering a fixed concentration of both A and B.
The model was converted to predict the level of 5-HT1b activation (i.e., efficacy) by both zolmitriptan and NDMZ based on the concentration of zolmitriptan in the CSF by substituting Occupancy for Efficacy as predicted by the Clark equation {Efficacy=[L]/([L]+Ki); [L]=ligand concentration} for both zolmitriptan and NDMZ:
Total % Efficacy={[Zolmitriptan]/([Zolmitriptan]+Ki,Z)}+(100−{[Zolmitriptan]/([Zolmitriptan]+Ki,Z)}×{[NDMZ]/([NDMZ]+Ki,N)}

[7] = Multiple ascending oral dose study in adult healthy volunteers (safety, tolerability, CSF PK); assay type: in vivo, human
Experimental: An investigation of the safety, tolerability and pharmacokinetic response of oral zolmitriptan following multiple ascending doses in adult healthy volunteer subjects was undertaken.
Zolmitriptan 2.5 mg per tablet or placebo tablet was administered 3 times per day (TID) for an up-titration period, treatment period of 7 days, and a down-titration period. The dose regimen is depicted in Table 1.
A lumbar puncture was completed on each subject to determine the concentration of zolmitriptan in the CSF. CSF samples were collected on day 5 of treatment for Cohort 1 and day 7 of treatment for Cohorts 2 and 3, and day 8 of treatment for cohort 4 and 5. The CSF collection was 2 hours after the morning dose (+/−30 minutes). CSF concentration was measured using a validated bioanalytical method.

[8] = tested on: VPA-exposed male c57/B16 mice; experiment: 3-chamber Social Interaction Assay in valproic acid (VPA)-induced mouse model of ASD; assay type: in vivo; settings: adult male c57/B16 mice previously exposed to VPA; 10 mg/kg i.p. 15 min before test; vs vehicle
Experimental: Specifically, sociability was evaluated in male c57/B16 mice that were previously exposed to valproic acid (VPA) via i.p. delivery of 500 mg/kg to their pregnant mothers at embryonic Day 13.
In this study, zolmitriptan was dissolved in 10% (2-Hydroxypropyl)-o-cyclodextrin in saline and administered intraperitoneally (i.p.) 15 minutes before mice were placed in the test chamber. Behavioral recordings were measured using an automated video tracking system (Noldus EthoVision v14) and analyzed and graphed using GraphPad Prism software v8. Sociability was assessed during a 10 min period in the 3-chamber Social Interaction Assay. The time spent (sec) in the social interaction zone (SIZ) in front of the juvenile novel C57/BL6 vs empty interaction zone (EIZ) were used to calculate the sociability scores for individual mice. Sociability index was calculated using SIZ/EIZ ratio. Social interaction preference was calculated using (SIZ)/(SIZ+EIZ)*100. Simultaneous recording up to 4 arenas were conducted for the social interaction assay. Paired and unpaired T tests were used as statistical tests.

resident BALB/c mice = experiment: Resident-Intruder (RI) assay, BALB/c resident / C57BL/6 intruder; assay type: in vivo, mouse
Description: Correspondingly, the RI assay has been used preclinically to study the effect of drugs on rodent aggression (Miczek et al., 2001). The RI assay typically relies on the interpretation and scoring of offensive (resident animal) behavior patterns and may also include analysis of defensive (intruder animal) behavior patterns as well. […] The resident mice were isolated for 1 week prior to testing aggressive behavior, while the intruders were group housed (4 per cage) throughout the study. All mice were given ad libitum food and water. Following the 1-week isolation period, aggressive behaviors were recorded using a front-facing camera daily (Monday-Friday) for up to 2 weeks to attain a stable baseline prior to evaluating drug effects. The interaction was scored using Borris open source event logging software to score the number of total initiated attacks by the resident and the cumulative duration of those attacks. Single fight bouts lasting longer than 60 seconds were stopped and the intruder was subsequently removed from the resident cage. […] The resident mice were treated with vehicle for two consecutive days and then balanced for a two arm (3 and 10 mg/kg) cross over study. […] The consecutive fourth and fifth days were vehicle treatment followed by a final cross over treatment day on the sixth day.

[9] = male, c57/B16, mouse, CSF, ip, 10 mg/kg
[10] = BALB/c resident mice, 3 and 10 mg/kg i.p., 15 min pretreatment, 5 min interaction, cross-over vs vehicle

T3 sequence (P28222 whole entry): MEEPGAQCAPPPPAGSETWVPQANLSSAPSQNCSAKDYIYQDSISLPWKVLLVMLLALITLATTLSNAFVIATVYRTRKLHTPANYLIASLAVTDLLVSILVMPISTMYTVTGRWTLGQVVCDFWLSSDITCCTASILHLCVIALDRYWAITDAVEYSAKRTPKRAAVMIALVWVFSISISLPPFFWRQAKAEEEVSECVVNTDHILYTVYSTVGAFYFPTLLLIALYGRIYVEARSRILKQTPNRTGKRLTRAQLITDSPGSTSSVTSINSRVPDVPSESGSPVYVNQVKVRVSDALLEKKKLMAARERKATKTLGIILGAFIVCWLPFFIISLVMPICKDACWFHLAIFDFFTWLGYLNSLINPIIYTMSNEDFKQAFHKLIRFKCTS
T1 sequence (P28222 whole entry): as above
T2 sequence (P28564 whole entry): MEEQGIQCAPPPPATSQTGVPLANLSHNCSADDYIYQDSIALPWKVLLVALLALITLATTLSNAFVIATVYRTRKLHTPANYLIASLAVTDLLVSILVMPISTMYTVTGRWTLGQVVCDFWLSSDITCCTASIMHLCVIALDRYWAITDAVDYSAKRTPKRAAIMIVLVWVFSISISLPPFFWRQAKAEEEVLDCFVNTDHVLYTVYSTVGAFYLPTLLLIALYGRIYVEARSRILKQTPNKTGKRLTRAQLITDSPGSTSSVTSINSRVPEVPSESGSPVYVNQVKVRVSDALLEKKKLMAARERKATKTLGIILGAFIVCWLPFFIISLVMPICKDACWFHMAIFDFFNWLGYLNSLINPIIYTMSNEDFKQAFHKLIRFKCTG

## CN1CCC[C@@H]1Cc1c[nH]c2ccc(CCS(=O)(=O)c3ccccc3)cc12 [Eletriptan, eletriptan]
5-HT1b receptor [1]
  Ki: 4.48 nM
[2]; 10 mg/Kg i.p.
  c57/B16 mouse CSF Cmax (10 mg/Kg, i.p.): 13.46 ng/mL
[2]; [9]
  Kp: 0.0077
[3]
  EC50: 120 nM
[4]
  EC50: 8.8 nM

## CN[C@@H]1CCc2[nH]c3ccc(C(N)=O)cc3c2C1 [Frovatriptan, frovatriptan]
[2]; 10 mg/Kg i.p.
  c57/B16 mouse CSF Cmax (10 mg/Kg, i.p.): 12.52 ng/mL
[2]; [9]
  Kp: 0.0015

## CNCCc1c[nH]c2ccc(C[C@H]3COC(=O)N3)cc12 [NDMZ, N-desmethyl zolmitriptan]
5-HT1b receptor [1]
  Ki: 1.18 nM
5-HT1b receptor [1]; from Ki values
  potency relative to zolmitriptan at human 5-HT1b: 2.83 fold
[2]; male c57/B16 mice dosed with zolmitriptan 10 mg/kg i.p.
  metabolite NDMZ level in CSF: below the lower limit of quantification
[5]
  metabolite NDMZ level: below the lower limit of quantification

## CNS(=O)(=O)CCc1ccc2[nH]cc(C3CCN(C)CC3)c2c1 [Naratriptan, naratriptan]
5-HT1b receptor [1]
  Ki: 0.95 nM
[2]; 10 mg/Kg i.p.
  c57/B16 mouse CSF Cmax (10 mg/Kg, i.p.): 79.56 ng/mL
[2]; [9]
  Kp: 0.0312
[3]
  EC50: 7.4 nM
[4]
  EC50: 1.2 nM

## Cc1nc2n(c(=O)c1CCN1CCC(c3noc4cc(F)ccc34)CC1)CCCC2 [Risperidone]
Resident CD-1 mice
  Attack Time (s): 21.58* s
  Latency to Attack: 12.98 s

## CN(C)CCc1c[nH]c2ccc(Cn3cncn3)cc12 [Rizatriptan, rizatriptan]
[2]; 10 mg/Kg i.p.
  c57/B16 mouse CSF Cmax (10 mg/Kg, i.p.): 90.20 ng/mL
[2]; [9]
  Kp: 0.0466
[3]
  EC50: 210 nM

## CN(C)CCc1c[nH]c2ccc(C[C@H]3COC(=O)N3)cc12 [Zolmitriptan, zolmitriptan]
Resident CD-1 mice
  Attack Time (s): 18.46*** s
  Latency to Attack: 13.54 s
Resident CD-1 mice; listed as zolmitriptan
  Attack Time (s): greater reduction in attack time
5-HT1b receptor [1]
  Ki: 3.34 nM
[2]; 10 mg/Kg i.p.
  c57/B16 mouse CSF Cmax (10 mg/Kg, i.p.): 17.83 ng/mL
[2]; c57/Bl6 ASD mouse model, 10 mg/Kg i.p.
  estimated effective CSF Cmax: 62 nM
[2]; male, c57/B16, mouse, CSF, intraperitoneal, 10 mg/kg
  Kp: 0.0076
[2]; [9]
  Cmax: 17.8 ng/mL
  Kp: 0.0076
[3]; CD-1 mouse, 3 mg/Kg i.p., CSF Cmax 18.8 nM
  activity in GTPgS at CSF Cmax: 36%
[3]; c57/Bl6 mouse, 10 mg/Kg i.p., CSF Cmax 62 nM
  activity in GTPgS at CSF Cmax: 65%
[3]; rat EC50 relative to human EC50
  difference between species in EC50 (rat vs human 5-HT1b): 8.3 fold
[3]
  EC50: 33 nM
In vivo; 3 mg/kg
  Cmax: 5.4 ng/mL
In vivo; 10 mg/kg
  Cmax: 34.4 ng/mL
5-HT1b receptor [6]; combined effect of metabolite
  concentration for 50% Total Efficacy relative to zolmitriptan EC50: 3.7 fold
5-HT1b receptor [6]; model prediction
  concentration of zolmitriptan in human CSF predicted to induce 50% efficacy (EC50) of 5-HT1b by zolmitriptan and NDMZ: 1.09 nM and 0.31 ng/ml
5-HT1b receptor [6]; Activity EC20-EC80
  Zolmitriptan human dose: 1.25 to 35 mg
  Zolmitriptan [CSF]: 0.078 to 1.24 ng/mL
5-HT1b receptor [6]; Activity EC25-EC75
  Zolmitriptan human dose: 1.7 to 30 mg
  Zolmitriptan [CSF]: 0.103 to 0.93 ng/mL
5-HT1b receptor [6]; Activity EC30-EC70
  Zolmitriptan human dose: 2.25 to 20 mg
  Zolmitriptan [CSF]: 0.135 to 0.713 ng/mL
5-HT1b receptor [6]; Activity EC35-EC65
  Zolmitriptan human dose: 3 to 15 mg
  Zolmitriptan [CSF]: 0.167 to 0.577 ng/mL
5-HT1b receptor [6]; Activity EC40-EC60
  Zolmitriptan human dose: 5 to 12.5 mg
  Zolmitriptan [CSF]: 0.207 to 0.465 ng/mL
[7]; adult healthy volunteers, oral TID multiple ascending doses, all Cohorts
  safety and tolerability: safe and well tolerated
[7]; human, CSF, oral, read-out: CSF: plasma ratio for exposure
  Kp at 2 h: 0.03
[8]
  sociability index (SIZ/EIZ ratio): increased the sociability index
[4]; extrapolated from species difference in EC50
  CSF levels required for therapeutic effect, humans vs mice (fold lower): about 8.3 fold
[4]
  EC50: 4 nM
Resident BALB/c mice; [10]
  attack time: reduction
  number of attacks: reduction in the number of attacks
Resident BALB/c mice; BALB/c resident mice, 3 and 10 mg/kg i.p., p<0.05, paired t-test
  attack behavior, dose dependence: significant dose dependent effect of reduction in attack behavior
Resident BALB/c mice; treated mice, 3 and 10 mg/kg
  normal locomotor activity: did not effect normal locomotor activity
